Experimental findings from PMC10451668, “Natural Acetogenins, Chatenaytrienins-1, -2, -3 and -4, Mitochondrial Potential Uncouplers and Autophagy Inducers—Promising Anticancer Agents” (Antioxidants, 2023) are described below.

Assay type in all cases: cell-based, human
The nature of series [1]: Cytotoxicity assay (7-AAD viability, flow cytometry). Particulars: human; normal fibroblasts; ± standard error of the mean, 95% CI in parenthesis.
Series [2] has as its system Jurkat cell lysates. Kind of series: Multiplex analysis of signaling, genotoxicity and early apoptosis proteins (MILLIPLEX MAP, Luminex). On the procedure: Multiplex analysis was performed according to a previously published method. MILLIPLEX®MAP technology is used to determine the total protein or phosphorylated protein levels of various biological analytes, such as kinases or signaling proteins, including CREB, ERK/MAP, p70 S6, p21, p38, PI3K/AKT/mTOR, JNK (A), p53, MDM2, Bcl-2/Bax, STAT3 and STAT5, Nf-kB, Caspase 3-8-9, JNK, ATM, Chk1, Chk2, and H2AX, in cell lysates using the Luminex® system ((MILLIPLEX Multi-Pathway Magnetic Bead 9-Plex—Cell Signaling Multiplex Assay kit, Merk, Germany). This MILLIPLEX®MAP technology provides an alternative to Western blotting and immunoprecipitation and has several important advantages, such as more accurate measurement of small amounts of protein and the elimination of analyte loss during sample preparation. The multiplex immunoassay (MILLIPLEX 48-680MAG; Merck Millipore, Germany) was performed in Millipore 96-well plates to detect changes in concentrations of phosphorylated and unphosphorylated proteins p53, MDM2, p21, p38, PI3K/AKT/mTOR, Bcl-2/Bax, STAT3 and STAT5, Nf-kB, Caspase 3 -8-9, CREB, ERK/MAP, p70 S6, JNK, ATM, Chk1, Chk2, and H2AX in Jurkat cell lysates.
The levels of phosphorylated and non-phosphorylated proteins were analyzed using MILLIPLEX® map technology to study the analytes in the same sample within a fairly short time. Various deviations in protein concentration due to external factors or detection errors that could affect the results of the experiment were thereby reduced to zero.
The expression of p53, MDM2, p21, p38, PI3K/AKT/mTOR, Bcl-2/Bax, STAT3 and STAT5, Nf-kB, Caspase 3-8-9, CREB, ERK/MAP, p70 S6, JNK, ATM, Chk1, Chk2, and H2AX proteins in lysate samples of Jurkat tumor cells were studied using Luminex technology with the MILLIPLEX® MAP 9-Plex Multi-Pathway 9-plex Magnetic Bead Kit. This bead-based assay involved color-coded fluorescent particles pre-coated with specific antibodies targeting 9 major kinases in signaling pathways.

The subject of series [3] is K562. As to the kind of experiment: Cytotoxicity assay (7-AAD viability, flow cytometry). Particulars: Homo sapiens, ± standard error of the mean, 95% CI in parenthesis. An excerpt: (§1) Cells, including Jurkat E6.1 (human leukemic T cell lymphoblasts, catalogue no. 88042803), K562 (human chronic myelogenous leukemia cells, catalogue no. 89121407), U937 (human histiocytic lymphoma cells, catalogue no. 85011440), HL60 (human promyelocytic leukemia cells, catalog no. 98070106), HEK293 (human embryonic kidney cells with adenovirus, catalog no. 85120602), and human lung fibroblasts Ce (catalogue no. 90011883), were purchased from the European Collection of Authenticated Cell Cultures (UK Health Security Agency) and cultured according to standard protocols using sterile techniques. […] Cells were maintained in RPMI 1640 (Jurkat, K562, U937, and HL60) and DME M (fibroblast and HEK293) (Gibco) supplemented with […] glutamine, 10% FBS (Sigma), and 100 units/mL penicillin-streptomycin (Sigma). All types of cells were grown under an atmosphere of 5% CO2 at 37 °C. The cells were subcultured at 2–3-day intervals. Cells were then seeded in 24-well plates at 5 × 10^4 cells per well and incubated overnight. Jurkat, K562, U937, HL60, HEK293, and fibroblast cells were subcultured at 2-day intervals with a seeding density of 1 × 10^5 cells per well in 24-well plates in RPMI with 10% FBS.
(§2) Viability (live/dead) assessment was performed by staining cells with 7-AAD (7-aminoactinomycin D; Biolegend). After treatment, cells were harvested, washed 1–2 times with phosphate-buffered saline (PBS), and centrifuged at 400× g for 5 min. Cell pellets were resuspended in 200 µL of flow cytometry staining buffer (PBS without Ca^2+ and Mg^2+, 2.5% FBS) and stained with […] of 7-AAD staining solution for 15 min at room temperature in the dark. Samples were assessed using the NovoCyte Penteon Flow Cytometer System (Agilent, 5301 Stevens Creek Blvd., Santa Clara, CA, USA). Detection of 7-AAD emission was collected through a 675/30 nm filter in the FL4 channel.
In general terms: In flow cytometry, cells or beads pass a laser one at a time.

For series [4], the system named is HL60. The series is described as above. Particulars: Homo sapiens, HL-60, ± standard error of the mean, 95% CI in parenthesis.
Text: as §1, §2

Series [5] deals with U937. The description is as above. Particulars: Homo sapiens, U-937, ± standard error of the mean, 95% CI in parenthesis.
Text: as §1, §2

Assay in series [6]: as above
Particulars: human; Hek293, conditionally normal line; ± standard error of the mean, 95% CI in parenthesis.
Text: as §1, §2

For series [7], the system named is Jurkat. The description is as above. To be noted: Homo sapiens, ± standard error of the mean, 95% CI in parenthesis.
Text: as §1, §2

For series [8], the system named is Jurkat cells. As to the kind of experiment: Oxidative stress and early apoptosis (MitoSOX Red and annexin V, MitoStress Kit). Particulars: compound at CC50, 4 h. An excerpt: Changes in the mitochondrial membrane potential (ΔΨ) in Jurkat cells induced by treatment with the synthesized compounds were detected using MitoSOX Red, a positively charged probe that accumulates rapidly in mitochondria and as such can be used to detect superoxide/ROS production within mitochondria using fluorometry, microscopy, or flow cytometry. Live cells induced a low level of MitoSOX Red fluorescence, while cells with scattered mitochondrial membrane potential caused much higher MitoSOX Red fluorescence. Annexin V is a dye commonly used to detect early signs of apoptosis. […] Thus, using two different dyes, MitoSOX Red and annexin V (CF488A), in the FlowCellect™ MitoStress Kit (FCCH100109), we analyzed the mitochondrial membrane potential dissipation and associated apoptosis in Jurkat cells in response to the synthesized chatenaytrienins.
Therefore, simultaneous detection of mitochondrial superoxide generation (detected by MitoSOX Red membrane-penetrating dye) and expression of phosphatidylserine on the cell surface of apoptotic cells (assessed by binding of annexin V) in the same cell sample provides an accurate evaluation of the ability of the test compound to initiate oxidative stress in cell culture and induce apoptosis.

The CC50 is the concentration that lowers cell viability or growth by half. With `CCCCCCCCCC/C=C\CC/C=C\CC/C=C\CCCCCCCCCCC1=C[C@H](C)OC1=O` [compound 1, chatenaytrienin-1], the CC50 in series [1] amounted to 690 ± 40 nM; in series [3] it was 100 ± 30 nM; in series [4], 150 ± 10 nM; in series [5], 90 ± 20 nM; in series [6] it was 530 ± 20 nM; in series [7], 90 ± 20 nM. Also, the “expression of caspase-8” value in series [2] (6 h and 12 h) is listed as “did not significantly affect”. For the same compound, the “levels of Akt, p38, and CREB” value in series [2] (compound at CC50, 4 h) is reported as “most pronouncedly suppressed”. Also, the “levels of all types of kinase proteins (CREB, JNK, NFkB, p38, ERK1/2, Akt, p70S6K, STAT3, STAT5)” value in series [2] (compound at CC50, 4 h, MFI versus intact cells) is on record as “most pronouncedly reduced”. The “cleaved caspase-9” value in series [2] (especially after 12 h, level exceeded control) was “promoted the accumulation”. The “level of BAD protein” value in series [2] (first 6 h, within 12 h began to increase again, not reaching control) was “decreased”. The “cells demonstrating oxidative stress along with the marker of early apoptosis, annexin” value in series [8] (MitoSOX Red and annexin V) came out at 10.53%. In series [8] (annexin V), the “cells in early apoptosis” value worked out at 75%.
